{"source": "ChEMBL document CHEMBL6078627", "about": "“Epigallocatechin and epigallocatechin-3-gallate are not inhibitors of tyrosinase” (Bioorg Med Chem Lett, 2024)", "format_in_all_cases": "protein assay", "key": {"[1]": {"biological_target": "T1, Mushroom tyrosinase (Agaricus bisporus) (UniProt O42713+Q00024+C7FF04+C7FF05)", "test": "Inhibition of mushroom Tyrosinase using L-DOPA as substrate assessed as change in absorbance at 50 to 100 uM by spectrophotometric analysis", "conditions": "dose 50-100 µM"}, "[2]": {"biological_target": "T1, Mushroom tyrosinase (Agaricus bisporus)", "test": "Inhibition of mushroom Tyrosinase using L-DOPA as substrate assessed as change in absorbance at 50 to 100 uM at 305 nm by spectrophotometric analysis", "conditions": "dose 50-100 µM"}, "[3]": {"biological_target": "T1, Mushroom tyrosinase (Agaricus bisporus)", "test": "Inhibition of mushroom Tyrosinase using L-DOPA as substrate assessed as reduction in oxygen consumption"}, "[4]": {"biological_target": "T1, Mushroom tyrosinase (Agaricus bisporus)", "test": "Inhibition of mushroom Tyrosinase using L-DOPA as substrate assessed as reduction in oxygen consumption measured after 10 mins"}}, "note": "Activity calls are given as the source filed them. The calls are words filed in the database; no cut-off is given here.", "data": [{"smiles": "O=C(O)c1cc(O)c(O)c(O)c1", "values": [{"measurement": "inhibition", "setting": "[1]", "value": "Active"}, {"measurement": "inhibition", "setting": "[2]", "value": "Active"}, {"measurement": "inhibition", "setting": "[3]", "value": "Active"}]}, {"smiles": "Oc1cc(O)c2c(c1)O[C@H](c1cc(O)c(O)c(O)c1)[C@H](O)C2", "values": [{"measurement": "inhibition", "setting": "[1]", "value": "Active"}, {"measurement": "inhibition", "setting": "[2]", "value": "Active"}, {"measurement": "inhibition", "setting": "[3]", "value": "Active"}]}, {"smiles": "O=C(O[C@@H]1Cc2c(O)cc(O)cc2O[C@@H]1c1cc(O)c(O)c(O)c1)c1cc(O)c(O)c(O)c1", "values": [{"measurement": "inhibition", "setting": "[1]", "value": "Active"}, {"measurement": "inhibition", "setting": "[2]", "value": "Active"}, {"measurement": "inhibition", "setting": "[3]", "value": "Active"}, {"measurement": "inhibition", "setting": "[4]", "value": 10, "unit": "%"}]}]}
